What was measured:
[1] = tested on: normal NK cells expanded with K562-aAPC; test: percent inhibition of viability; higher = more inhibition; conditions: 72 h, IL-2 2.5 ng/mL
Procedure: (§1)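 Drug sensitivity and resistance testing on K562-aAPC-expanded normal NK cells: 5 concentrations (10-fold steps over a 10,000-fold range), 72 h at 37 °C, viability by CellTiter-Glo normalised to DMSO and benzethonium chloride controls; DSS from the fitted curve.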

DERL-7 (IL-2 2.5 ng/mL) [2] = test: drug sensitivity score (DSS) (DSS units); higher = more sensitive; extreme values may be limits of the assay; conditions: 72 h
[3] = tested on: normal primary NK cells, pool 3 (3 donors) (IL-2 2.5 ng/mL); test: as above; conditions: 72 h
KHYG-1 (IL-2 2.5 ng/mL) [4] = test: as above; conditions: 72 h
[5] = tested on: normal primary NK cells, pool 2 (3 donors) (IL-2 2.5 ng/mL); test: as above; conditions: 72 h
SNK-6 (IL-2 2.5 ng/mL) [6] = test: as above; conditions: 72 h
NK-YS (IL-2 2.5 ng/mL) [7] = test: as above; conditions: 72 h
[8] = tested on: normal primary NK cells, pool 1 (3 donors), resting (IL-2 0 ng/mL); test: as above; conditions: 72 h
KAI3 (IL-2 2.5 ng/mL) [9] = test: as above; conditions: 72 h
IMC-1 (IL-2 20 ng/mL) [10] = test: as above; conditions: 72 h
[11] = tested on: normal primary NK cells, pool 1 (3 donors) (IL-2 2.5 ng/mL); test: as above; conditions: 72 h
NK-92 (IL-2 2.5 ng/mL) [12] = test: as above; conditions: 72 h
YT (IL-2 2.5 ng/mL) [13] = test: as above; conditions: 72 h
NKL (IL-2 2.5 ng/mL) [14] = test: as above; conditions: 72 h
DERL-7 (IL-2 2.5 ng/mL) [15] = test: percent inhibition of viability; higher = more inhibition; conditions: 72 h
[16] = tested on: normal primary NK cells, pool 3 (3 donors) (IL-2 2.5 ng/mL); test: as above; conditions: 72 h
KHYG-1 (IL-2 2.5 ng/mL) [17] = test: as above; conditions: 72 h
[18] = tested on: normal primary NK cells, pool 2 (3 donors) (IL-2 2.5 ng/mL); test: as above; conditions: 72 h
SNK-6 (IL-2 2.5 ng/mL) [19] = test: as above; conditions: 72 h
NK-YS (IL-2 2.5 ng/mL) [20] = test: as above; conditions: 72 h
[21] = tested on: normal primary NK cells, pool 1 (3 donors), resting (IL-2 0 ng/mL); test: as above; conditions: 72 h
KAI3 (IL-2 2.5 ng/mL) [22] = test: as above; conditions: 72 h
IMC-1 (IL-2 20 ng/mL) [23] = test: as above; conditions: 72 h
[24] = tested on: normal primary NK cells, pool 1 (3 donors) (IL-2 2.5 ng/mL); test: as above; conditions: 72 h
NK-92 (IL-2 2.5 ng/mL) [25] = test: as above; conditions: 72 h
YT (IL-2 2.5 ng/mL) [26] = test: as above; conditions: 72 h
NKL (IL-2 2.5 ng/mL) [27] = test: as above; conditions: 72 h
[28] = tested on: normal NK cells expanded with K562-aAPC; test: drug sensitivity score (DSS) (DSS units); higher = more sensitive; extreme values may be limits of the assay; conditions: 72 h; IL-2 2.5 ng/mL
Procedure: as §1

COc1cccc2c1c(O)c(C(=O)N(C)c1ccc(C(F)(F)F)cc1)c(=O)n2C [Tasquinimod] (max concentration tested 10000 nM)
percent inhibition of viability [%]
Conditions | 1 nM | 10 nM | 100 nM | 1000 nM | 10000 nM
DERL-7 (IL-2 2.5 ng/mL) [15] | -3.57 | -2.07 | -7.69 | -10.8 | -11.1
IMC-1 (IL-2 20 ng/mL) [23] | -0.7 | -0.26 | 6.03 | 4.89 | 24.9
KAI3 (IL-2 2.5 ng/mL) [22] | -4.26 | 7.35 | 5.88 | 0.64 | 16.9
KHYG-1 (IL-2 2.5 ng/mL) [17] | -2.03 | 0.19 | 16.6 | 3.8 | 15.4
NK-92 (IL-2 2.5 ng/mL) [25] | -9.77 | 4.66 | 9.08 | 0.57 | 14.6
NK-YS (IL-2 2.5 ng/mL) [20] | 0.96 | 4.34 | 12.7 | 5.52 | 18.5
NKL (IL-2 2.5 ng/mL) [27] | -7.64 | -0.44 | 4.18 | -3.6 | 2.35
SNK-6 (IL-2 2.5 ng/mL) [19] | -5.13 | 6.31 | 6.1 | 14.1 | 15.8
YT (IL-2 2.5 ng/mL) [26] | -0.31 | 1.63 | 5.58 | -0.55 | 12.3
[1] | -7.07 | 0.32 | 1.21 | 7.82 | 14.8
[16] | -20.6 | -6.75 | -1.92 | -3.86 | -2.57
[18] | -8.15 | -6.65 | -1.09 | -7.24 | -2.69
[21] | 8.18 | -8.58 | -1.08 | -15.9 | -8.64
[24] | 3.81 | -6.54 | 6.5 | -11.9 | 5.24

Conditions | drug sensitivity score
DERL-7 (IL-2 2.5 ng/mL) [2] | 0
IMC-1 (IL-2 20 ng/mL) [10] | 1.63
KAI3 (IL-2 2.5 ng/mL) [9] | 0.42
KHYG-1 (IL-2 2.5 ng/mL) [4] | 0.64
NK-92 (IL-2 2.5 ng/mL) [12] | 0.25
NK-YS (IL-2 2.5 ng/mL) [7] | 0.88
NKL (IL-2 2.5 ng/mL) [14] | 0
SNK-6 (IL-2 2.5 ng/mL) [6] | 1.33
YT (IL-2 2.5 ng/mL) [13] | 0.05
[3] | 0
[5] | 0
[8] | 0
[11] | 0
[28] | 0.52

COC(=O)c1ccc2c(c1)NC(=O)/C2=C(\Nc1ccc(N(C)C(=O)CN2CCN(C)CC2)cc1)c1ccccc1 [Nintedanib] (max concentration tested 10000 nM)
percent inhibition of viability [%]
Conditions | 1 nM | 10 nM | 100 nM | 1000 nM | 10000 nM
DERL-7 (IL-2 2.5 ng/mL) [15] | -8.99 | 0.01 | 2.16 | 38.1 | 100
IMC-1 (IL-2 20 ng/mL) [23] | -8.95 | -2.57 | -11.3 | -22.3 | 100
KAI3 (IL-2 2.5 ng/mL) [22] | -8.46 | -2.04 | 1.37 | 16.4 | 93.4
KHYG-1 (IL-2 2.5 ng/mL) [17] | -5.39 | -3.23 | -3.31 | 20.3 | 99.6
NK-92 (IL-2 2.5 ng/mL) [25] | -4.93 | 2.39 | -1.05 | 45.4 | 99.4
NK-YS (IL-2 2.5 ng/mL) [20] | -4.51 | -2.23 | -3.24 | 20.9 | 99.6
NKL (IL-2 2.5 ng/mL) [27] | -7.94 | -17.2 | -2.91 | 56.5 | 100
SNK-6 (IL-2 2.5 ng/mL) [19] | 16.6 | 7.57 | -2.75 | -31.8 | 83.2
YT (IL-2 2.5 ng/mL) [26] | -2.16 | -1.03 | -3.64 | 7.19 | 99.3
[1] | -0.08 | -2.82 | 8.47 | 31 | 100
[16] | -18.1 | -18.2 | -5.82 | 5.55 | 99.6
[18] | -15.7 | -1.56 | -14 | 23.9 | 99.2
[21] | -8.23 | -15.9 | -15.4 | 47 | 94.9
[24] | -7.78 | -11 | -5.14 | 38.2 | 98.9

Conditions | drug sensitivity score
DERL-7 (IL-2 2.5 ng/mL) [2] | 10.7
IMC-1 (IL-2 20 ng/mL) [10] | 4.45
KAI3 (IL-2 2.5 ng/mL) [9] | 7.87
KHYG-1 (IL-2 2.5 ng/mL) [4] | 8.76
NK-92 (IL-2 2.5 ng/mL) [12] | 11.3
NK-YS (IL-2 2.5 ng/mL) [7] | 8.84
NKL (IL-2 2.5 ng/mL) [14] | 12.3
SNK-6 (IL-2 2.5 ng/mL) [6] | 3.37
YT (IL-2 2.5 ng/mL) [13] | 6.61
[3] | 6.33
[5] | 9.18
[8] | 11.1
[11] | 10.6
[28] | 9.6

Cc1[nH]c2ccccc2c1CCNCc1ccc(/C=C/C(=O)NO)cc1 [Panobinostat] (max concentration tested 1000 nM)
percent inhibition of viability [%]
Conditions | 0.1 nM | 1 nM | 10 nM | 100 nM | 1000 nM
DERL-7 (IL-2 2.5 ng/mL) [15] | -11.8 | -4.71 | 36.5 | 100 | 100
IMC-1 (IL-2 20 ng/mL) [23] | -2.07 | -6.63 | 2.44 | 100 | 100
KAI3 (IL-2 2.5 ng/mL) [22] | 4.1 | 14.2 | 61.8 | 101 | 101
KHYG-1 (IL-2 2.5 ng/mL) [17] | -7.12 | -8.38 | 22.6 | 101 | 101
NK-92 (IL-2 2.5 ng/mL) [25] | -5.27 | -2.71 | 34 | 98.1 | 101
NK-YS (IL-2 2.5 ng/mL) [20] | -8.83 | -9.94 | 19.8 | 97.1 | 98.8
NKL (IL-2 2.5 ng/mL) [27] | -1.46 | 1.8 | 61.1 | 101 | 100
SNK-6 (IL-2 2.5 ng/mL) [19] | -14.8 | 4.53 | 31.4 | 98.9 | 99.6
YT (IL-2 2.5 ng/mL) [26] | 0.21 | -1.12 | 12.8 | 101 | 98.4
[1] | 0.2 | 2.99 | 33.4 | 99.8 | 99.8
[16] | -7.01 | -2.67 | 31.6 | 97.8 | 98.5
[18] | -7.26 | -4.93 | 64.8 | 94.5 | 94.9
[21] | -10.7 | 2.83 | 67 | 89.2 | 90.8
[24] | 0.27 | -4.7 | 33.9 | 97 | 97.5

Conditions | drug sensitivity score
DERL-7 (IL-2 2.5 ng/mL) [2] | 23
IMC-1 (IL-2 20 ng/mL) [10] | 18.3
KAI3 (IL-2 2.5 ng/mL) [9] | 26
KHYG-1 (IL-2 2.5 ng/mL) [4] | 21.6
NK-92 (IL-2 2.5 ng/mL) [12] | 22.5
NK-YS (IL-2 2.5 ng/mL) [7] | 21
NKL (IL-2 2.5 ng/mL) [14] | 25.2
SNK-6 (IL-2 2.5 ng/mL) [6] | 22.1
YT (IL-2 2.5 ng/mL) [13] | 20.1
[3] | 22.3
[5] | 24.6
[8] | 24.6
[11] | 22.3
[28] | 22.6

COc1ncc(-c2ccc3nccc(-c4ccnnc4)c3c2)cc1NS(=O)(=O)c1ccc(F)cc1F [Omipalisib] (max concentration tested 1000 nM)
percent inhibition of viability [%]
Conditions | 0.1 nM | 1 nM | 10 nM | 100 nM | 1000 nM
DERL-7 (IL-2 2.5 ng/mL) [15] | 1.39 | 16.9 | 45.5 | 77.3 | 95.7
IMC-1 (IL-2 20 ng/mL) [23] | -0.58 | -1.71 | -11.8 | -32.5 | 29.1
KAI3 (IL-2 2.5 ng/mL) [22] | 2.3 | 36.1 | 15.3 | 35.5 | 62.9
KHYG-1 (IL-2 2.5 ng/mL) [17] | 1.89 | 1.24 | 8.6 | 40.2 | 91.6
NK-92 (IL-2 2.5 ng/mL) [25] | 3.62 | 20.4 | 32.1 | 48.6 | 69.9
NK-YS (IL-2 2.5 ng/mL) [20] | -0.6 | 1.69 | 13.2 | 53.7 | 73.3
NKL (IL-2 2.5 ng/mL) [27] | -9.37 | 0.19 | 6.59 | 54.9 | 80.4
SNK-6 (IL-2 2.5 ng/mL) [19] | 8.44 | 2.37 | -0.31 | 30.5 | 61.5
YT (IL-2 2.5 ng/mL) [26] | -0.94 | 1.51 | 27.5 | 54.4 | 79.8
[1] | 3.51 | 3.67 | 20.4 | 44.6 | 55.5
[16] | -11.3 | -2.43 | 7.07 | 5.39 | 36.4
[18] | -6.47 | 2.05 | 24.7 | 24.7 | 47.5
[21] | 2.21 | 9.83 | 13.8 | 26.6 | 49.1
[24] | -10 | -4.5 | 18.5 | 20.1 | 40

Conditions | drug sensitivity score
DERL-7 (IL-2 2.5 ng/mL) [2] | 21
IMC-1 (IL-2 20 ng/mL) [10] | 0.6
KAI3 (IL-2 2.5 ng/mL) [9] | 12.9
KHYG-1 (IL-2 2.5 ng/mL) [4] | 9.7
NK-92 (IL-2 2.5 ng/mL) [12] | 14.8
NK-YS (IL-2 2.5 ng/mL) [7] | 11.7
NKL (IL-2 2.5 ng/mL) [14] | 11.4
SNK-6 (IL-2 2.5 ng/mL) [6] | 7.24
YT (IL-2 2.5 ng/mL) [13] | 13.7
[3] | 2.64
[5] | 7.36
[8] | 6.75
[11] | 5.18
[28] | 10.6
